Laboratory results: paper PMC10303384, “The Effect of Terbinafine and Its Ionic Salts on Certain Fungal Plant Pathogens” (Molecules, 2023)
“And” between values parts separate entries of the source, which are not always exact repeats. Identical values can stand only once. Like-named read-outs stand apart in the source and are kept apart here.

How the values were obtained:
[1] = system: B. cinerea on cherry tomatoes; assay: In vivo antifungal bioassay on cherry tomatoes; parameters: species or system Botrytis cinerea; conditions: 20 mg/L; for Diameter of infection (cm) 4 days: 4 days after treatment; for Diameter of infection (cm) 7 days: 7 days after treatment
[2] = system: Pyricularia oryzae (P. oryzae); assay: microbe, parasite or virus in culture; format: cell-based; conditions: for Inhibition Rate at 50 mg/L (%) P. o: mean ± SD of three replicates
[3] = system: Fusarium graminearum (F. graminearum); assay: microbe, parasite or virus in culture; format: cell-based; conditions: for Inhibition Rate at 50 mg/L (%) F. g: mean ± SD of three replicates
Valsa malicola (V. mali) = assay: In vitro fungicidal activity, mycelial (hyphae) growth inhibition on PDA; format: cell-based
[4] = system: Botrytis cinerea (B. cinerea); assay: as above; format: cell-based
[5] = system: Alternaria solani (A. solani); assay: as above; format: cell-based
[6] = system: Rhizoctonia solani (R. solani); assay: microbe, parasite or virus in culture; format: cell-based
[7] = Solubility of saturated solutions by HPLC at 25 °C; format: physicochemical; conditions: for solubility at 15 min: thermodynamic from solid
Source text: The filtrate was then passed through a 0.22 μm nylon membrane filter and subjected to HPLC analysis. Based on Wang’s report about the chromatographic parameters, modifications to the mobile phase ratio were made. The replicability of the results was ensured by performing each measurement in triplicate.

[8] = Solubility classification in representative solvents (Vogel protocol); format: physicochemical; conditions: 25 °C, test amount 0.1 g; for solubility: thermodynamic from solid
Method: This investigation details how to determine the solubility of terbinafine and its salts, guided by the experimental protocol in Vogel’s Textbook of Practical Organic Chemistry. Based on the Snyder polarity index values of the representative solvents, each solvent was tested for its ability to dissolve the target analytes. The solubility data was classified into three categories based on the observed extent of dissolution. […] The experimental procedures were performed at 25 °C and under ambient pressure.

[9] = system: Pythium aphanidermatum (P. aphanidermatum); assay: In vitro fungicidal activity, mycelial (hyphae) growth inhibition on PDA; format: cell-based
[10] = system: Phomopsis capsici (P. capsica); assay: as above; format: cell-based
[11] = Surface tension of saturated aqueous solutions, Du Noüy ring method; conditions: 25 °C
Method: This method involved adjusting the stage positioning of the solvent container such that a platinum ring could be immersed below the liquid interface or pulled through the meniscus. […] The maximum force was recorded as the surface tension of the solvent. To ensure accuracy, the platinum ring was thoroughly cleaned between each measurement through rinsing with double-distilled water and wiping it dry. The surface tension determination was performed in quadruplicate.

[12] = Fusarium graminearum, F. graminearum
[13] = read-out: EC50 (μmol/L), P. oryzae
[14] = isopropanol, organic solvent or mixture, Table S1, read-out: Solubility, Isopropanol
[15] = n-hexane, organic solvent or mixture, Table S1, read-out: Solubility, n-Hexane
[16] = water, Table S1, read-out: Solubility, Water
[17] = DMSO, organic solvent or mixture, Snyder polarity index 6.5, read-out: Solubility in DMSO
[18] = acetone, organic solvent or mixture, Snyder polarity index 5.1, read-out: Solubility in Acetone
[19] = acetonitrile, organic solvent or mixture, Snyder polarity index 6.2, read-out: Solubility in Acetonitrile
[20] = chloroform, organic solvent or mixture, Snyder polarity index 4.1, read-out: Solubility in Chloroform
[21] = ethyl acetate, organic solvent or mixture, Snyder polarity index 4.3, read-out: Solubility in Ethyl acetate
[22] = isopropanol, organic solvent or mixture, read-out: Solubility in Isopropanol
[23] = methanol, organic solvent or mixture, Snyder polarity index 6.6, read-out: Solubility in Methanol
[24] = n-hexane, organic solvent or mixture, Snyder polarity index 0.0, read-out: Solubility in n-Hexane
[25] = toluene, organic solvent or mixture, Snyder polarity index 2.3, read-out: Solubility in Toluene
[26] = water, Snyder polarity index 9.0, read-out: Solubility in Water
[27] = read-out: EC50 (μmol/L), F. graminearum

COC(=O)Nc1nc2ccccc2[nH]1 [Carbendazim, reference compound]
Diameter of infection (cm) 4 days [1]: 0.85 cm
Diameter of infection (cm) 7 days [1]: 0.92 cm

COC(=O)N(OC)c1ccccc1COc1ccn(-c2ccc(Cl)cc2)n1 [Pyraclostrobin, reference compound]
Diameter of infection (cm) 4 days [1]: 0.71 cm
Diameter of infection (cm) 7 days [1]: 0.92 cm
EC50 ([2]; Pyricularia oryzae, P. oryzae): 0.6 µg/mL and 1.54 µM
EC50 [3, 12]: 1.43 µg/mL and 3.68 µM
EC50 (Valsa malicola (V. mali)): 0.79 µg/mL and 2.02 µM
EC50 ([4]; Botrytis cinerea): 0.12 µg/mL and 310 nM
EC50 ([5]; Alternaria solani): 0.23 µg/mL and 590 nM
EC50 ([6]; Rhizoctonia solani): 0.07 µg/mL and 190 nM

CN(C/C=C/C#CC(C)(C)C)Cc1cccc2ccccc12.O=C(O)c1ccccc1O [TIS 1, (E)-N,6,6-trimethyl-N-(naphthalen-1-ylmethyl)hept-2-en-4-yn-1-aminium 2-hydroxybenzoate]
Diameter of infection (cm) 4 days [1]: 0.78 cm
Diameter of infection (cm) 7 days [1]: 1.10 cm
Inhibition Rate at 50 mg/L (%) P. o [2]: 99.05 ± 0.21%
EC50 ([2]; Pyricularia oryzae, P. oryzae): 0.47 µg/mL
EC50 [2, 13]: 1.1 µmol/L
solubility at 15 min [7, 14]: 5.18 µM
solubility at 15 min [7, 15]: 0.502 µM
solubility at 15 min [7, 16]: 284 µM
solubility [8, 17]: > 100 mg/mL
solubility [8, 18]: > 100 mg/mL
solubility [8, 19]: > 100 mg/mL
solubility [8, 20]: > 100 mg/mL
solubility [8, 21]: > 100 mg/mL
solubility [8, 22]: < 33.3 mg/mL
solubility [8, 23]: > 100 mg/mL
solubility [8, 24]: < 33.3 mg/mL
solubility [8, 25]: > 100 mg/mL
solubility [8, 26]: < 33.3 mg/mL
Inhibition Rate at 50 mg/L (%) F. g [3]: 100 ± 0%
EC50 [3, 12]: 0.1 µg/mL
EC50 [3, 27]: 0.23 µmol/L
EC50 (Valsa malicola (V. mali)): 2.24 µg/mL
Inhibition Rate at 50 mg/L (%) V. m (Valsa malicola (V. mali)): 100 ± 0%
EC50 (Valsa malicola (V. mali); read-out: EC50 (μmol/L)): 5.21 µmol/L
inhibition at 50 µg/mL ([9]; Pythium aphanidermatum, 50 mg/L, read-out: Inhibition Rate at 50 mg/L (%) P. a): 74.61 ± 0.38%
Inhibition Rate at 50 mg/L (%) B. c [4]: 100 ± 0%
EC50 ([4]; Botrytis cinerea): 0.14 µg/mL
EC50 ([4]; read-out: EC50 (μmol/L)): 0.32 µmol/L
Inhibition Rate at 50 mg/L (%) A. s [5]: 100 ± 0%
EC50 ([5]; Alternaria solani): 0.13 µg/mL
EC50 ([5]; read-out: EC50 (μmol/L)): 0.3 µmol/L
inhibition at 50 µg/mL ([10]; Diaporthe capsici, 50 mg/L, read-out: Inhibition Rate at 50 mg/L (%) P. c): 47 ± 1.18%
surface tension of the saturated aqueous solution [11]: 58.33 mN·m^−1
Inhibition Rate at 50 mg/L (%) R. s [6]: 84.79 ± 1.25%
EC50 ([6]; Rhizoctonia solani): 2.49 µg/mL
EC50 ([6]; read-out: EC50 (μmol/L)): 5.81 µmol/L

CN(C/C=C/C#CC(C)(C)C)Cc1cccc2ccccc12.O=C(O)C1C(C(=O)O)[C@@]2(Cl)C(Cl)=C(Cl)[C@]1(Cl)C2(Cl)Cl [TIS 2, (E)-N,6,6-trimethyl-N-(naphthalen-1-ylmethyl)hept-2-en-4-yn-1-aminium (1S,4R)-3-carboxy-1,4,5,6,7,7-hexachlorobicyclo [2.2.1]hept-5-ene-2-carboxylate]
Inhibition Rate at 50 mg/L (%) P. o [2]: 96.09 ± 0.36%
EC50 (mg/L) ([2]; P. oryzae): 0.88 mg/L
EC50 ([2]; P. oryzae, read-out: EC50): 1.29 µmol/L
Solubility, Acetone ([7]; Table S1): 8.23 µM
Solubility, Acetonitrile ([7]; Table S1): 0.155 µM
Solubility, Chloroform ([7]; Table S1): 1.39 µM
Solubility, Ethyl acetate ([7]; Table S1): 0.456 µM
Solubility, Isopropanol ([7]; Table S1): 0.0703 µM
Solubility, Methanol ([7]; Table S1): 0.0554 µM
Solubility, Toluene ([7]; Table S1): 0.366 µM
Solubility, Water ([7]; Table S1): 5.62 µM
Solubility, n-Hexane ([7]; Table S1): 0.0221 µM
Solubility in n-Hexane ([8]; Snyder polarity index 0.0): − (“−” means insoluble in a 3 mL solvent, poor solubility)
Solubility in Toluene ([8]; Snyder polarity index 2.3): − (“−” means insoluble in a 3 mL solvent, poor solubility)
Solubility in Chloroform ([8]; Snyder polarity index 4.1): − (“−” means insoluble in a 3 mL solvent, poor solubility)
Solubility in Ethyl acetate ([8]; Snyder polarity index 4.3): − (“−” means insoluble in a 3 mL solvent, poor solubility)
Solubility in Isopropanol ([8]; Snyder polarity index 4.3): − (“−” means insoluble in a 3 mL solvent, poor solubility)
Solubility in Acetone ([8]; Snyder polarity index 5.1): − (“−” means insoluble in a 3 mL solvent, poor solubility)
Solubility in Acetonitrile ([8]; Snyder polarity index 6.2): − (“−” means insoluble in a 3 mL solvent, poor solubility)
Solubility in DMSO ([8]; Snyder polarity index 6.5): + (“+” means soluble in a 1 mL solvent, good solubility)
Solubility in Methanol ([8]; Snyder polarity index 6.6): − (“−” means insoluble in a 3 mL solvent, poor solubility)
Solubility in Water ([8]; Snyder polarity index 9.0): − (“−” means insoluble in a 3 mL solvent, poor solubility)
Inhibition Rate at 50 mg/L (%) F. g [3]: 100 ± 0%
EC50 (mg/L) ([3]; F. graminearum): 0.16 mg/L
EC50 ([3]; F. graminearum, read-out: EC50): 0.24 µmol/L
Inhibition Rate at 50 mg/L (%) V. m (Valsa malicola (V. mali); mean ± SD of three replicates): 100 ± 0%
EC50 (mg/L) (Valsa malicola (V. mali); V. mali): 4.28 mg/L
EC50 (Valsa malicola (V. mali); V. mali, read-out: EC50 (μmol/L)): 6.29 µmol/L
Inhibition Rate at 50 mg/L (%) P. a ([9]; mean ± SD of three replicates): 69.65 ± 1.7%
Inhibition Rate at 50 mg/L (%) B. c ([4]; mean ± SD of three replicates): 100 ± 0%
EC50 (mg/L) ([4]; B. cinerea): 0.25 mg/L
EC50 ([4]; B. cinerea, read-out: EC50 (μmol/L)): 0.37 µmol/L
Inhibition Rate at 50 mg/L (%) A. s ([5]; mean ± SD of three replicates): 98.8 ± 0%
EC50 (mg/L) ([5]; A. solani): 0.18 mg/L
EC50 ([5]; A. solani, read-out: EC50 (μmol/L)): 0.27 µmol/L
Inhibition Rate at 50 mg/L (%) P. c ([10]; mean ± SD of three replicates): 43.85 ± 1.61%
surface tension of the saturated aqueous solution [11]: 62.78 mN·m^−1
EC50 (mg/L) [6]: 3.32 mg/L
Inhibition Rate at 50 mg/L (%) R. s [6]: 80.75 ± 0.72%
EC50 ([6]; read-out: EC50): 4.88 µmol/L

CN(C/C=C/C#CC(C)(C)C)Cc1cccc2ccccc12.O=C(O)/C=C\C(=O)O [TIS 3, (E)-N,6,6-trimethyl-N-(naphthalen-1-ylmethyl)hept-2-en-4-yn-1-aminium (Z)-3-carboxyacrylate]
Diameter of infection (cm) 4 days [1]: 0.82 cm
Diameter of infection (cm) 7 days [1]: 1.02 cm
Inhibition Rate at 50 mg/L (%) P. o [2]: 99.29 ± 0%
EC50 ([2]; Pyricularia oryzae, P. oryzae): 0.58 µg/mL
EC50 [2, 13]: 1.41 µmol/L
solubility at 15 min ([7]; acetone, organic solvent or mixture, Table S1, read-out: Solubility, Acetone): 3.76 µM
solubility at 15 min ([7]; acetonitrile, organic solvent or mixture, Table S1, read-out: Solubility, Acetonitrile): 1490 µM
solubility at 15 min ([7]; ethyl acetate, organic solvent or mixture, Table S1, read-out: Solubility, Ethyl acetate): 485 µM
solubility at 15 min [7, 14]: 3.06 µM
solubility at 15 min [7, 15]: 0.234 µM
solubility at 15 min ([7]; toluene, organic solvent or mixture, Table S1, read-out: Solubility, Toluene): 42.1 µM
solubility at 15 min [7, 16]: 616 µM
solubility [8, 17]: > 100 mg/mL
solubility [8, 18]: < 33.3 mg/mL
solubility [8, 19]: < 33.3 mg/mL
solubility [8, 20]: > 100 mg/mL
solubility [8, 21]: < 33.3 mg/mL
solubility [8, 22]: < 33.3 mg/mL
solubility [8, 23]: > 100 mg/mL
solubility [8, 24]: < 33.3 mg/mL
solubility [8, 25]: < 33.3 mg/mL
solubility [8, 26]: < 33.3 mg/mL
Inhibition Rate at 50 mg/L (%) F. g [3]: 100 ± 0%
EC50 [3, 12]: 0.1 µg/mL
EC50 [3, 27]: 0.24 µmol/L
EC50 (Valsa malicola (V. mali)): 2.03 µg/mL
Inhibition Rate at 50 mg/L (%) V. m (Valsa malicola (V. mali)): 100 ± 0%
EC50 (Valsa malicola (V. mali); read-out: EC50 (μmol/L)): 4.98 µmol/L
Inhibition Rate at 50 mg/L (%) P. a [9]: 69.54 ± 0%
Inhibition Rate at 50 mg/L (%) B. c [4]: 100 ± 0%
EC50 ([4]; Botrytis cinerea): 0.13 µg/mL
Inhibition Rate at 50 mg/L (%) A. s [5]: 100 ± 0%
EC50 ([5]; Alternaria solani): 0.15 µg/mL
EC50 ([5]; read-out: EC50 (μmol/L)): 0.36 µmol/L
Inhibition Rate at 50 mg/L (%) P. c [10]: 33.16 ± 2.52%
surface tension of the saturated aqueous solution [11]: 61.48 mN·m^−1
better activity than terbinafine [6]: 24%
Inhibition Rate at 50 mg/L (%) R. s [6]: 83.4 ± 0.35%
EC50 ([6]; Rhizoctonia solani): 1.84 µg/mL
EC50 ([6]; read-out: EC50 (μmol/L)): 4.51 µmol/L
